# Assay results published in patent US6579556B2, “Ambient stable beverage” (Lipton, division of Conopco, Inc., priority 2000, dated 2003).
# Tested on: yeast Saccharomyces cerevisiae X2180-1B
# Assay: Fungicidal activity / MIC at 50° C. versus 30° C., yeast survival in YEPD broth pH 3.4
# Assay type: cell-based
# Settings: Saccharomyces cerevisiae, read-out: MIC50
# Description: In the table the minimum inhibitory concentration (MIC) is given for each compound as well as the molecular weight (M.W.), the logPoct and a rating of its importance. […] The logPoct, that is the logarithm of the partition coefficient of the relevant compound in octanol and thus a measure of its […], was determined using […]™ software from the CHEMOFFICE ULRA ENHANCED 2000™ software package (version 5.5) that is commercially available from CambridgeSoft.
# (§1) YEPD contained glucose, 20 g/l, peptone 20 g/l and yeast extract 10 g/l. Rows of 30 ml tubes containing 10 ml YEPD, pH 3.4, were equilibrated at the required temperature for 7 minutes in a water bath, before inoculation with 10^4 cells/ml of the yeast Saccharomyces cerevisiae X2180-1B. Tubes were held at temperature for 10 minutes before being cooled rapidly in cold water for 5 minutes. Tubes were then incubated for 48 hours at 25° C. to allow surviving yeasts to grow out, and form discrete colonies.
# as §1, §1, §1
row,Compound,MIC
1,O=C(c1ccccc1)C(O)c1ccccc1 (stereo not drawn) [Benzoin],10 mM
2,CCCCCCCCCC(C)=O [2-Undecanone],1 mM
3,C=CC(C)(CCC=C(C)C)OC(C)=O (stereo not drawn) [Linalyl acetate],10 mM

# Same assay, conditions: Saccharomyces cerevisiae; minimum inhibitory concentration, 50° C., given as ppm; read-out: MIC50
row,Compound,MIC50
1,CCCCCCCCCCC=CC=O [2-Tridecenal],< 9.8 µg/mL
2,CCCCCCCCCC=CC=O [2-Dodecenal],< 9 µg/mL

# Same assay, conditions: Saccharomyces cerevisiae; minimum inhibitory concentration, 50° C.; read-out: MIC50
row,Compound,MIC
1,CCCCCCCCOC(=O)CCC [Octyl butyrate],40 mM
2,CCCCCCCCCCCCCO [Tridecanol],0.05 mM
3,CCCCCCOC(=O)CCCCC [Hexyl hexanoate],30 mM
4,CCCCCCCCCCC=CC=O [2-Tridecenal],< 0.05 mM
5,CCCCCOC(=O)CCCCC [Amyl hexanoate],2 mM
6,CCCCCCCCCCCCCCO [Tetradecanol],50 mM
7,CCCCCCC(=O)OCCCC [Butyl heptanoate],5 mM
8,CCCCCCCCCCCCC=O [Tridecanal],5 mM
9,CCCCCCCOC(=O)CCC [Heptyl butyrate],2 mM
10,CCCCCCCCCC(=O)OCC [Ethyl decanoate],40 mM
11,CCCCCCCC(=O)OCCCCCC [Hexyl octanoate],10 mM
12,CCCC(=O)OC/C=C(\C)CCC=C(C)C [Geranyl butyrate],40 mM
13,CCCCCCCCCCCCOC(C)=O [Lauryl acetate],40 mM
14,CCCC(=O)OC/C=C(/C)CCC=C(C)C [Neryl butyrate],50 mM
15,CCC(=O)OC/C=C(\C)CCC=C(C)C [Geranyl propionate],12 mM
16,C=CC(C)(CCC=C(C)C)OC(=O)CC (stereo not drawn) [Linalyl propionate],20 mM
17,CCCCCCCCC(=O)OCC [Ethyl nonanoate],10 mM
18,CCCCCCCCCCCCCCCO [Pentadecanol],75 mM
19,CCCCCCCCCC=CC=O [2-Dodecenal],< 0.05 mM
20,CC(=O)OC1CC2CCC1(C)C2(C)C (stereo not drawn) [Bornyl acetate],2 mM

row,Compound,MIC
1,O=C(OCc1ccccc1)c1ccccc1O [Benzyl salicylate],50 mM
2,CC(C)=CCC/C(C)=C\COC(=O)C(C)C [Neryl isobutyrate],30 mM
3,CCCCCCCCCCCC(=O)OCCCC [Butyl laurate],100 mM
4,CCCCCCCCCCCCCCCCO [Hexadecanol],100 mM
5,CC(C)CCOC(=O)c1ccccc1O [Isoamyl salicylate],15 mM
6,CCCCCCCCCCCCC(=O)O [Tridecanoic acid],0.2 mM
7,CCCCCCCCCCOC(=O)CC [Decyl propionate],50 mM
8,C=CC(C)(O)CCC=C(C)CCC=C(C)C (stereo not drawn) [Nerolidol],1.5 mM
9,CCCCCCCCCCOC(=O)CCC [Decyl butyrate],70 mM
10,C=CCCCCCCCCC(=O)OCCCC [Butyl 10-undecenoate],40 mM
11,CCCCCC(=O)OCCC(C)C [Isoamyl hexanoate],5 mM
12,CCCCCCCC(=O)OCCc1ccccc1 [Phenethyl octanoate],40 mM
13,CCCCCCCCCCCCCC(=O)OC [Methyl myristate],60 mM
14,CCCCCCCCCCC(=O)OCC [Ethyl undecanoate],50 mM
15,CCCCCCCCCCCCCC=O [Myristaldehyde],40 mM
16,CCCCCCCC(=O)OCCCCC [Amyl octanoate],60 mM
17,C=CCOC(=O)CCC1CCCCC1 [Allyl cyclohexanepropionate],1 mM
18,CCCCCCCCCCCCCC(=O)O [Myristic acid],50 mM
19,CCCCCCCCCCCC(=O)OCC [Ethyl laurate],80 mM

# Same assay, conditions: minimum inhibitory concentration, 50° C.
row,Compound,MIC50
1,CCCCCCCCCCCCCCC(=O)O [Pantadecanoic acid],80 mM
2,w-6-Hexadecalactone,50 mM
3,C=C1CC/C=C(\C)CC[C@@H]2[C@@H]1CC2(C)C [β-Caryophylene],70 mM
4,C=C(C)C1CC=C(C)C(OC(=O)CC)C1 (stereo not drawn) [Carvyl propionate],5 mM
5,O=C1CCCCCCCCCCCCCCO1 [w-Pentadecalactone],60 mM

# Same assay, conditions: rating as pasteurisation adjunct
row,Compound,Importance
1,CCCCCCCCOC(=O)CCC [Octyl butyrate],"High (High effects compounds, most preferred, generally showed at least a 5 fold decrease in MIC, minimum inhibitory concentration at 50 °C compared with 30° C.)"
2,CCCCCCCCCCCCCO [Tridecanol],"High (High effects compounds, most preferred, generally showed at least a 5 fold decrease in MIC, minimum inhibitory concentration at 50 °C compared with 30° C.)"
3,O=C(c1ccccc1)C(O)c1ccccc1 (stereo not drawn) [Benzoin],10
4,CCCCCCOC(=O)CCCCC [Hexyl hexanoate],"High (High effects compounds, most preferred, generally showed at least a 5 fold decrease in MIC, minimum inhibitory concentration at 50 °C compared with 30° C.)"
5,CCCCCCCCCCC=CC=O [2-Tridecenal],"High (High effects compounds, most preferred, generally showed at least a 5 fold decrease in MIC, minimum inhibitory concentration at 50 °C compared with 30° C.)"
6,CCCCCOC(=O)CCCCC [Amyl hexanoate],"High (High effects compounds, most preferred, generally showed at least a 5 fold decrease in MIC, minimum inhibitory concentration at 50 °C compared with 30° C.)"
7,CCCCCCCCCCCCCCO [Tetradecanol],Mod
8,CCCCCCCCCCCCCCC(=O)O [Pantadecanoic acid],Low
9,CCCCCCC(=O)OCCCC [Butyl heptanoate],"High (High effects compounds, most preferred, generally showed at least a 5 fold decrease in MIC, minimum inhibitory concentration at 50 °C compared with 30° C.)"
10,CCCCCCCCCCCCC=O [Tridecanal],"High (High effects compounds, most preferred, generally showed at least a 5 fold decrease in MIC, minimum inhibitory concentration at 50 °C compared with 30° C.)"
11,CCCCCCCOC(=O)CCC [Heptyl butyrate],"High (High effects compounds, most preferred, generally showed at least a 5 fold decrease in MIC, minimum inhibitory concentration at 50 °C compared with 30° C.)"
12,CCCCCCCCCC(=O)OCC [Ethyl decanoate],"High (High effects compounds, most preferred, generally showed at least a 5 fold decrease in MIC, minimum inhibitory concentration at 50 °C compared with 30° C.)"
13,CCCCCCCC(=O)OCCCCCC [Hexyl octanoate],Mod
14,CCCC(=O)OC/C=C(\C)CCC=C(C)C [Geranyl butyrate],"High (High effects compounds, most preferred, generally showed at least a 5 fold decrease in MIC, minimum inhibitory concentration at 50 °C compared with 30° C.)"
15,CCCCCCCCCCCCOC(C)=O [Lauryl acetate],Mod
16,CCCC(=O)OC/C=C(/C)CCC=C(C)C [Neryl butyrate],Mod
17,CCC(=O)OC/C=C(\C)CCC=C(C)C [Geranyl propionate],"High (High effects compounds, most preferred, generally showed at least a 5 fold decrease in MIC, minimum inhibitory concentration at 50 °C compared with 30° C.)"
18,C=CC(C)(CCC=C(C)C)OC(=O)CC (stereo not drawn) [Linalyl propionate],Mod
19,CCCCCCCCC(=O)OCC [Ethyl nonanoate],"High (High effects compounds, most preferred, generally showed at least a 5 fold decrease in MIC, minimum inhibitory concentration at 50 °C compared with 30° C.)"
20,CCCCCCCCCC(C)=O [2-Undecanone],"High (High effects compounds, most preferred, generally showed at least a 5 fold decrease in MIC, minimum inhibitory concentration at 50 °C compared with 30° C.)"
21,CCCCCCCCCCCCCCCO [Pentadecanol],Low
22,CCCCCCCCCC=CC=O [2-Dodecenal],"High (High effects compounds, most preferred, generally showed at least a 5 fold decrease in MIC, minimum inhibitory concentration at 50 °C compared with 30° C.)"
23,CC(=O)OC1CC2CCC1(C)C2(C)C (stereo not drawn) [Bornyl acetate],Low
24,O=C(OCc1ccccc1)c1ccccc1O [Benzyl salicylate],Low

row,Compound,Importance
1,CC(C)=CCC/C(C)=C\COC(=O)C(C)C [Neryl isobutyrate],"High (High effects compounds, most preferred, generally showed at least a 5 fold decrease in MIC, minimum inhibitory concentration at 50 °C compared with 30° C.)"
2,CCCCCCCCCCCC(=O)OCCCC [Butyl laurate],Low
3,CCCCCCCCCCCCCCCCO [Hexadecanol],Low
4,CC(C)CCOC(=O)c1ccccc1O [Isoamyl salicylate],Mod
5,CCCCCCCCCCCCC(=O)O [Tridecanoic acid],"High (High effects compounds, most preferred, generally showed at least a 5 fold decrease in MIC, minimum inhibitory concentration at 50 °C compared with 30° C.)"
6,CCCCCCCCCCOC(=O)CC [Decyl propionate],"High (High effects compounds, most preferred, generally showed at least a 5 fold decrease in MIC, minimum inhibitory concentration at 50 °C compared with 30° C.)"
7,C=CC(C)(O)CCC=C(C)CCC=C(C)C (stereo not drawn) [Nerolidol],"High (High effects compounds, most preferred, generally showed at least a 5 fold decrease in MIC, minimum inhibitory concentration at 50 °C compared with 30° C.)"
8,CCCCCCCCCCOC(=O)CCC [Decyl butyrate],Low
9,C=CCCCCCCCCC(=O)OCCCC [Butyl 10-undecenoate],Mod
10,w-6-Hexadecalactone,Low
11,CCCCCC(=O)OCCC(C)C [Isoamyl hexanoate],"High (High effects compounds, most preferred, generally showed at least a 5 fold decrease in MIC, minimum inhibitory concentration at 50 °C compared with 30° C.)"
12,CCCCCCCC(=O)OCCc1ccccc1 [Phenethyl octanoate],Mod
13,CCCCCCCCCCCCCC(=O)OC [Methyl myristate],Low
14,C=CC(C)(CCC=C(C)C)OC(C)=O (stereo not drawn) [Linalyl acetate],Mod
15,CCCCCCCCCCC(=O)OCC [Ethyl undecanoate],Mod
16,CCCCCCCCCCCCCC=O [Myristaldehyde],Mod
17,C=C1CC/C=C(\C)CC[C@@H]2[C@@H]1CC2(C)C [β-Caryophylene],Low
18,CCCCCCCC(=O)OCCCCC [Amyl octanoate],Mod
19,C=C(C)C1CC=C(C)C(OC(=O)CC)C1 (stereo not drawn) [Carvyl propionate],Mod
20,C=CCOC(=O)CCC1CCCCC1 [Allyl cyclohexanepropionate],"High (High effects compounds, most preferred, generally showed at least a 5 fold decrease in MIC, minimum inhibitory concentration at 50 °C compared with 30° C.)"
21,CCCCCCCCCCCCCC(=O)O [Myristic acid],"High (High effects compounds, most preferred, generally showed at least a 5 fold decrease in MIC, minimum inhibitory concentration at 50 °C compared with 30° C.)"
22,CCCCCCCCCCCC(=O)OCC [Ethyl laurate],Mod
23,O=C1CCCCCCCCCCCCCCO1 [w-Pentadecalactone],Low
